According to US9758538B2, “Pyrimidine derivatives” (PFIZER INC., priority 2015, dated 2017):

Biological target: truncated PI3Kα (p110α/iSH2 p85α), PI3KA_Act (Homo sapiens (Human), UniProt P42336)
Assay: PI3Kα biochemical kinase assay, fluorescence polarization format (PI3KA_Act)
Settings: 0.5 nM p110α/iSH2 p85, 1 mM ATP, 30 μM PIP2, 15-min preincubation; Morrison equation fit; read-out: PI3KA_Act Ki
How it was run: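 Enzyme: His-tagged p110α/p85α niSH2 complex from Sf21 baculovirus expression, IMAC-purified, tag cleaved, then SEC. Reactions ran 30 min at room temperature, stopped with 10 mM EDTA pH 8 (final), and were read by fluorescence polarization.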

Chain of truncated PI3Kα (p110α/iSH2 p85α), PI3KA_Act (P42336 whole entry, the tested form may be a part): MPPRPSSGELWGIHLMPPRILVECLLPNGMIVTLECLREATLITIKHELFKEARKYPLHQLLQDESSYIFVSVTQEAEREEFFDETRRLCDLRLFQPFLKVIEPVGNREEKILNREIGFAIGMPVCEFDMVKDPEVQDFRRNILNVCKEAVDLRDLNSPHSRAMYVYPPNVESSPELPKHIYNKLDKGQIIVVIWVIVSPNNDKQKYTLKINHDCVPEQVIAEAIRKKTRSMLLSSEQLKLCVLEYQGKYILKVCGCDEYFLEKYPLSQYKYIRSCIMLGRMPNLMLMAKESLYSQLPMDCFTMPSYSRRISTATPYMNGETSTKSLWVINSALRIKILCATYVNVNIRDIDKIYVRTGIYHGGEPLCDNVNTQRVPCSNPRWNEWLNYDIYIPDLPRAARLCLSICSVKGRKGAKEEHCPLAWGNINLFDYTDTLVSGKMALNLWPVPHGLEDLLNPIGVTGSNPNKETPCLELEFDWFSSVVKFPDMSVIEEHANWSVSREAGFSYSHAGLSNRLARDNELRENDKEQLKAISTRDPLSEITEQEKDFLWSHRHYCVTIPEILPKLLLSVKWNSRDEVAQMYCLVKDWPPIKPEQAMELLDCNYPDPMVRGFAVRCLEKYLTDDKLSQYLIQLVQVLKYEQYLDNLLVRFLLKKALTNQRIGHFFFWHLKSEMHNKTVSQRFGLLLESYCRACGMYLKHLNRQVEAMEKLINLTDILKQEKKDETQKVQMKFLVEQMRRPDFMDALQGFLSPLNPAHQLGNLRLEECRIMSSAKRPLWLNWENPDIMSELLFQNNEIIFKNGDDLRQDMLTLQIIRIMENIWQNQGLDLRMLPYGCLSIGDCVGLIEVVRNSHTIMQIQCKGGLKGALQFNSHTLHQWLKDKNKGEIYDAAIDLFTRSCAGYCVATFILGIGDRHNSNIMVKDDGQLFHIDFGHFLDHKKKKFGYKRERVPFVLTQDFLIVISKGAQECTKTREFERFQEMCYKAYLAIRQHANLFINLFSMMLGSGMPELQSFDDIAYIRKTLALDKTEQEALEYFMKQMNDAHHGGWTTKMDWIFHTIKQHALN

Row | SMILES | Ki
1 | CC(C)OC(=O)N1CC[C@](CO)(Nc2nc(-c3cnc(N)nc3)nc(N3CCOCC3)n2)C1 [Example 83, propan-2-yl (3S)-3-{[4-(2-aminopyrimidin-5-yl)-6-(morpholin-4-yl)-1,3,5-triazin-2-yl]amino}-3-(hydroxymethyl)pyrrolidine-1-carboxylate] | 0.215 nM
2 | CN1CCC(N2CC[C@](CO)(Nc3cc(-c4cnc(N)nc4)nc(N4CCOCC4)n3)C2)C1=O (stereo partly drawn) [Example 76, (3S)-3-{[2′-amino-2-(morpholin-4-yl)-4,5′-bipyrimidin-6-yl]amino}-3-(hydroxymethyl)-1′-methyl-1,3′-bipyrrolidin-2′-one] | 1.82 nM
3 | Cc1ncc(-c2cc(N[C@@]3(CO)CCN(C(=O)OC(C)(C)C)C3)nc(N3CCOCC3)n2)cn1 [Example 126, tert-butyl (3S)-3-(hydroxymethyl)-3-{[2′-methyl-2-(morpholin-4-yl)-4,5′-bipyrimidin-6-yl]amino}pyrrolidine-1-carboxylate] | 1.92 nM
4 | Nc1ncc(-c2cc(N[C@@]3(CO)CCN(c4ccccn4)C3)nc(N3CCOCC3)n2)cn1 [Example 85, [(3S)-3-{[2′-amino-2-(morpholin-4-yl)-4,5′-bipyrimidin-6-yl]amino}-1-(pyridin-2-yl)pyrrolidin-3-yl]methanol] | 0.067 nM
5 | C[C@H]1COCCN1c1nc(N[C@@]2(CO)CCN(C(=O)OC(C)(C)C)C2)cc(-c2cnc(N)nc2)n1 [Example 36, tert-butyl (3S)-3-({2′-amino-2-[(3S)-3-methylmorpholin-4-yl]-4,5′-bipyrimidin-6-yl}amino)-3-(hydroxymethyl)pyrrolidine-1-carboxylate] | < 0.018 nM
6 | Nc1ncc(-c2cc(N[C@@]3(CO)CCN(C(=O)c4cn[nH]c4)C3)nc(N3CCOCC3)n2)cn1 [Example 90, [(3S)-3-{[2′-amino-2-(morpholin-4-yl)-4,5′-bipyrimidin-6-yl]amino}-3-(hydroxymethyl)pyrrolidin-1-yl](1H-pyrazol-4-yl)methanone] | < 0.018 nM
7 | Nc1ncc(-c2cc(N[C@@]3(CO)CCN(C(=O)c4ncc[nH]4)C3)nc(N3CCOCC3)n2)cn1 [Example 86, [(3S)-3-{[2′-amino-2-(morpholin-4-yl)-4,5′-bipyrimidin-6-yl]amino}-3-(hydroxymethyl)pyrrolidin-1-yl](1H-imidazol-2-yl)methanone] | 0.026 nM
8 | COC(=O)N1CC[C@](CO)(Nc2nc(-c3cnc(N)nc3)nc(N3CCOCC3)n2)C1 [Example 11, methyl (3S)-3-{[4-(2-aminopyrimidin-5-yl)-6-(morpholin-4-yl)-1,3,5-triazin-2-yl]amino}-3-(hydroxymethyl)pyrrolidine-1-carboxylate] | 0.103 nM
9 | Nc1ncc(-c2nc(N3CCOCC3)nc(N[C@@]3(COP(=O)(O)O)CCN(C(=O)OCC(F)F)C3)c2F)cn1 [Example 3, 2,2-difluoroethyl (3S)-3-{[2′-amino-5-fluoro-2-(morpholin-4-yl)-4,5′-bipyrimidin-6-yl]amino}-3-[(phosphonooxy)methyl]pyrrolidine-1-carboxylate] | 2.61 nM
10 | COC[C@]1(Nc2cc(-c3cnc(N)nc3)nc(N3CCOCC3)n2)CCNC1 [Example 122, N˜6˜-[(3S)-3-(methoxymethyl)pyrrolidin-3-yl]-2-(morpholin-4-yl)-4,5′-bipyrimidine-2′,6-diamine] | 21.5 nM
11 | Cn1cc(C(=O)N2CC[C@](CO)(Nc3cc(-c4cnc(N)nc4)nc(N4CCOCC4)n3)C2)cn1 [Example 81, [(3S)-3-{[2′-amino-2-(morpholin-4-yl)-4,5′-bipyrimidin-6-yl]amino}-3-(hydroxymethyl)pyrrolidin-1-yl](1-methyl-1H-pyrazol-4-yl)methanone] | 0.31 nM
12 | Nc1ncc(-c2cc(NC3(CF)CCN(C(=O)OCc4ccccc4)C3)nc(N3CCOCC3)n2)cn1 (stereo not shown) [Example 105, benzyl 3-{[2′-amino-2-(morpholin-4-yl)-4,5′-bipyrimidin-6-yl]amino}-3-(fluoromethyl)pyrrolidine-1-carboxylate] | 0.489 nM
13 | Nc1ncc(-c2cc(N[C@@]3(CO)CCN(C(=O)OC4CC4)C3)nc(N3CCOCC3)n2)cn1 [Example 93, cyclopropyl (3S)-3-{[2′-amino-2-(morpholin-4-yl)-4,5′-bipyrimidin-6-yl]amino}-3-(hydroxymethyl)pyrrolidine-1-carboxylate] | < 0.018 nM
14 | Nc1ncc(-c2cc(N[C@@]3(CO)CCN(C(=O)N4CCCC4)C3)nc(N3CCOCC3)n2)cn1 [Example 78, [(3S)-3-{[2′-amino-2-(morpholin-4-yl)-4,5′-bipyrimidin-6-yl]amino}-3-(hydroxymethyl)pyrrolidin-1-yl](pyrrolidin-1-yl)methanone] | 0.267 nM

Now from value to compound:

Row | Ki | SMILES
15 | 0.682 nM | Nc1ncc(-c2cc(N[C@@]3(CO)CCN(C4CCCNC4=O)C3)nc(N3CCOCC3)n2)cn1 (stereo partly drawn) [Example 88, 3-[(3S)-3-{[2′-amino-2-(morpholin-4-yl)-4,5′-bipyrimidin-6-yl]amino}-3-(hydroxymethyl)pyrrolidin-1-yl]piperidin-2-one]
16 | 1.48 nM | CN(C)C(=O)CN1CC[C@](CO)(Nc2cc(-c3cnc(N)nc3)nc(N3CCOCC3)n2)C1 [Example 100, 2-[(3S)-3-{[2′-amino-2-(morpholin-4-yl)-4,5′-bipyrimidin-6-yl]amino}-3-(hydroxymethyl)pyrrolidin-1-yl]-N,N-dimethylacetamide]
17 | 0.083 nM | C[C@H]1COCCN1c1nc(NC2(CO)CN(C(=O)OC(C)(C)C)C2)cc(-c2cnc(N)nc2)n1 [Example 49, tert-butyl 3-({2′-amino-2-[(3S)-3-methylmorpholin-4-yl]-4,5′-bipyrimidin-6-yl}amino)-3-(hydroxymethyl)azetidine-1-carboxylate]
18 | 5.88 nM | Nc1ncc(-c2cc(N[C@@]3(CO)CCNC3)nc(N3CCOCC3)n2)cn1 [Example 29, [(3S)-3-{[2′-amino-2-(morpholin-4-yl)-4,5′-bipyrimidin-6-yl]amino}pyrrolidin-3-yl]methanol]
19 | < 0.018 nM | CC(C)(C)OC(=O)N1CC[C@](CO)(Nc2nc(N3CCOCC3)nc(-c3cnc(N)nc3)c2F)C1 [Example 38, tert-butyl (3S)-3-{[2′-amino-5-fluoro-2-(morpholin-4-yl)-4,5′-bipyrimidin-6-yl]amino}-3-(hydroxymethyl)pyrrolidine-1-carboxylate]
20 | 1.65 nM | CC(=O)N1CCC[C@@](CO)(Nc2nc(N3CCOCC3)nc(-c3cnc(N)nc3)c2F)C1 [Example 152, 1-[(3R)-3-{[2′-amino-5-fluoro-2-(morpholin-4-yl)-4,5′-bipyrimidin-6-yl]amino}-3-(hydroxymethyl)piperidin-1-yl]ethanone]
21 | < 0.018 nM | Nc1ncc(-c2nc(N3CCOCC3)nc(N[C@@]3(CO)CCN(C(=O)OCCF)C3)c2F)cn1 [Example 139, 2-fluoroethyl (3S)-3-{[2′-amino-5-fluoro-2-(morpholin-4-yl)-4,5′-bipyrimidin-6-yl]amino}-3-(hydroxymethyl)pyrrolidine-1-carboxylate]
22 | 0.651 nM | CC(=O)N1CC(CO)(Nc2cc(-c3cnc(N)nc3)nc(N3CCOCC3)n2)C1 [Example 42, 1-[3-{[2′-amino-2-(morpholin-4-yl)-4,5′-bipyrimidin-6-yl]amino}-3-(hydroxymethyl)azetidin-1-yl]ethanone]
23 | < 0.018 nM | C[C@H]1COCCN1c1nc(N[C@@]2(CO)CCN(C(=O)OC3CC3)C2)c(F)c(-c2cnc(N)nc2)n1 [Example 117, cyclopropyl (3S)-3-({2′-amino-5-fluoro-2-[(3S)-3-methylmorpholin-4-yl]-4,5′-bipyrimidin-6-yl}amino)-3-(hydroxymethyl)pyrrolidine-1-carboxylate]
24 | 0.12 nM | CC(=O)N1CC[C@](C)(Nc2nc(N3CCOCC3)nc(-c3cnc(N)nc3)c2F)C1 [Example 106, 1-[(3S)-3-{[2′-amino-5-fluoro-2-(morpholin-4-yl)-4,5′-bipyrimidin-6-yl]amino}-3-methylpyrrolidin-1-yl]ethanone]
25 | 0.15 nM | CCOC(=O)N1CC[C@](COC)(Nc2cc(-c3cnc(N)nc3)nc(N3CCOCC3)n2)C1 [Example 121, ethyl (3S)-3-{[2′-amino-2-(morpholin-4-yl)-4,5′-bipyrimidin-6-yl]amino}-3-(methoxymethyl)pyrrolidine-1-carboxylate]
26 | 0.085 nM | Nc1ncc(-c2cc(N[C@@]3(CO)CCN(C(=O)c4ncccn4)C3)nc(N3CCOCC3)n2)cn1 [Example 87, [(3S)-3-{[2′-amino-2-(morpholin-4-yl)-4,5′-bipyrimidin-6-yl]amino}-3-(hydroxymethyl)pyrrolidin-1-yl](pyrimidin-2-yl)methanone]
27 | 0.23 nM | CC(C)C(=O)N1CC[C@](C)(Nc2nc(N3CCOCC3)nc(-c3cnc(N)nc3)c2F)C1 [Example 107, 1-[(3S)-3-{[2′-amino-5-fluoro-2-(morpholin-4-yl)-4,5′-bipyrimidin-6-yl]amino}-3-methylpyrrolidin-1-yl]-2-methylpropan-1-one]

Same assay, conditions: PI3KA_Act Ki (nM), 0.5 nM p110α/iSH2 p85, 1 mM ATP, 30 μM PIP2, 15-min preincubation; Morrison equation fit

Row | SMILES | Ki
28 | Nc1ncc(-c2nc(N3CCOCC3)nc(N[C@@]3(CO)CCN(C(=O)OCC(F)(F)F)C3)c2F)cn1 [Example 140, 2,2,2-trifluoroethyl (3S)-3-{[2′-amino-5-fluoro-2-(morpholin-4-yl)-4,5′-bipyrimidin-6-yl]amino}-3-(hydroxymethyl)pyrrolidine-1-carboxylate] | < 0.018 nM
